Data on 22 compounds can be found in patent publication US7205305B2, “Inhibitors of p38” (Vertex Pharmaceuticals Incorporated, priority 1996, dated 2007).

Test [1] has as its target T1, activated p38 (Homo sapiens, UniProt Q16539). Put plainly: Inhibition of phosphorylation of EGF receptor peptide ("kinase"). Format: biochemical. Conditions: inhibition of phosphorylation of EGF receptor peptide by activated p38. In short, it runs like this: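 Activated p38 was preincubated with inhibitor for 15 min at room temperature in 100 mM HEPES pH 7.6, 10 mM MgCl2, 25 mM β-glycerophosphate, 10% glycerol, 5% DMSO final. Reaction used 200 μM EGF receptor peptide and 100 μM ATP for 30 min at 30° C. TFA-quenched phosphopeptide was quantified by reverse-phase HPLC.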

The target in test [2] is T1, activated p38. Briefly: Inhibition of ATPase activity. Format: biochemical. The settings on record: ATPase activity of activated p38 (60 nM), 30° C., 30 minutes. As to the method:
This assay was carried out in the presence of 10 mM MgCl2, 25 mM β-glycerophosphate, 10% glycerol and 100 mM HEPES buffer at pH 7.6. For a typical Ki determination, the Km for ATP in the ATPase activity of activated p38 reaction was determined in the absence of inhibitor and in the presence of two concentrations of inhibitor. A stock solution was prepared containing all of the above components and activated p38 (60 nM). The stock solution was aliquotted into vials. […] The reaction was initiated by adding various concentrations of ATP and then incubated at 30° C. After 30 minutes, the reactions were quenched with 50 μl of EDTA (0.1 M, final concentration), pH 8.0. The product of p38 ATPase activity, ADP, was quantified by HPLC analysis.
Separation of ADP from ATP was achieved on a reversed phase column (Supelcosil, LC-18, 3 μm, part no. 5–8985) using a binary solvent gradient of following composition: Solvent A—0.1 M phosphate buffer containing 8 mM tetrabutylammonium hydrogen sulfate (Sigma Chemical Co., catalogue no. T-7158), Solvent B—Solvent A with 30% methanol.
Ki was determined from the rate data as a function of inhibitor and ATP concentrations.

For test [3], the system named is IL-1 production in LPS-stimulated PBMCs. Put plainly: Inhibition of IL-1 production in LPS-stimulated PBMCs ("cell"). The settings on record: Homo sapiens, PBMC. The format is cell-based, human. In short, it runs like this: (§1)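 Human PBMCs (4.8×10^6 cells/ml, RPMI1640/10% FBS) pre-treated with inhibitor dilutions, then stimulated with 4 ng/ml LPS final and incubated overnight (12–15 h) at 37 °C/5% CO2. Supernatant IL-1β and TNF-α measured by ELISA; IC50 from dose-response curves.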

The test system of test [4] is TNF production in LPS-stimulated PBMCs. Briefly: Inhibition of TNF production in LPS-stimulated PBMCs ("cell"). The format is cell-based, human. Conditions: Homo sapiens, PBMC. In short, it runs like this: as §1
The test system of test [5] is TNF production in whole blood. Put plainly: Inhibition of TNF production in LPS-stimulated whole blood ("WB"). Format: cell-based, human. Conditions: Homo sapiens. In short, it runs like this:
(§2)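 Anticoagulated whole blood was preincubated with serially diluted compound, then stimulated with 4 ng/ml LPS (final) overnight (12–15 h) at 37° C/5% CO2. Supernatant IL-1b, TNF-α and IL-6 were measured by ELISA and IC50 derived from dose-response curves.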

Test [6] concerns IL-1 production in whole blood. Put plainly: Inhibition of IL-1 production in LPS-stimulated whole blood ("WB"). Format: cell-based, human. Conditions: Homo sapiens. In short, it runs like this: as §2
Test [7] has as its system IL-6 production in whole blood. Put plainly: Inhibition of IL-6 production in LPS-stimulated whole blood ("WB"). The settings on record: Homo sapiens. Format: cell-based, human. As to the method:
Inhibitors were serially diluted in DMSO from a 20 mM stock. At least 6 serial dilutions were prepared. Then 4× inhibitor stocks were prepared by adding 4 μl of an inhibitor dilution to 1 ml of RPMI1640 medium/10% fetal bovine serum. The 4× inhibitor stocks contained inhibitor at concentrations of 80 μM, 32 μM, 12.8 μM, 5.12 μM, 2.048 μM, 0.819 μM, 0.328 μM, 0.131 μM, 0.052 μM, 0.021 μM etc. The 4× inhibitor stocks were pre-warmed at 37° C. until use.
Alternatively, whole blood containing an anti-coagulant was used directly in the assay.
We placed 100 μl of cell suspension or whole blood in each well of a 96-well cell culture plate. Then we added 50 μl of the 4× inhibitor stock to the cells. Finally, we added 50 μl of a lipopolysaccharide (LPS) working stock solution (16 ng/ml in cell culture medium) to give a final concentration of 4 ng/ml LPS in the assay. The total assay volume of the vehicle control was also adjusted to 200 μl by adding 50 μl cell culture medium. The PBMC cells or whole blood were then incubated overnight (for 12–15 hours) at 37° C./5% CO2 in a humidified atmosphere.
The next day the cells were mixed on a shaker for 3–5 minutes before centrifugation at 500×g for 5 minutes. Cell culture supernatants were harvested and analyzed by ELISA for levels of IL-1b (R & D Systems, Quantikine kits, #DBL50), TNF-α (BioSource, #KHC3012), IL-6 (Endogen, #EH2-IL6) and IL-8 (Endogen, #EH2-IL8) according to the instructions of the manufacturer. The ELISA data were used to generate dose-response curves from which IC50 values were derived.

A value given as a limit tells only on which side of the number the result lay.

T1 sequence (Q16539 whole entry): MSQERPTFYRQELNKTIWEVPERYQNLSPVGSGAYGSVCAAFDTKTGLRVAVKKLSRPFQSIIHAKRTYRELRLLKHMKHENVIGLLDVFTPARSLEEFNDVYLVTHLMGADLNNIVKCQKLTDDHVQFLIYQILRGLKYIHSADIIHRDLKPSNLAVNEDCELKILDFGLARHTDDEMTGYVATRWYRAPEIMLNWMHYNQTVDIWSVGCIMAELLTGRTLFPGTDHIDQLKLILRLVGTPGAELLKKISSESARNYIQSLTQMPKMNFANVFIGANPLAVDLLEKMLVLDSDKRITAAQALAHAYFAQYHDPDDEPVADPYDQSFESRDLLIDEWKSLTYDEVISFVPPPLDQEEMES

The IC50 is the concentration at which inhibition is half-maximal. A lower IC50 goes with higher potency. One may read the Ki as a measure of affinity in units of concentration, obtained from inhibition or displacement. In the case of `O=c1ncn2nc(Sc3ccccc3)ccc2c1-c1ccc(F)cc1` [Compound 2], at activated p38 [1], the IC50 was ≥ 1000 nM. The compound further yielded a Ki on activated p38 [2] of 15000 nM.
Take `O=c1ncn2nc(Sc3ccccc3)ccc2c1-c1ccc(Cl)cc1Cl` [Compound 3]: the concentration for half-maximal inhibition (IC50) on activated p38 [1] is ≥ 1000 nM. On activated p38 [2], this compound registered a Ki of 5000 nM.
Regarding `Cc1ccc(Sc2ccc3c(-c4ccc(Cl)cc4Cl)c(=O)ncn3n2)cc1` [Compound 5], the IC50 at activated p38 [1] is ≥ 1000 nM. The Ki at activated p38 [2] came to 2900 nM.
Turning to `NC(=O)C(c1cccc(-c2ccccc2/C=N\O)n1)c1c(Cl)cccc1Cl` (stereo not drawn) [Compound 307], the half-inhibitory concentration (IC50) in test [3] was 100 to 500 nM; in test [4], ≥ 500 nM; on activated p38 [1], ≤ 100 nM; in test [5], ≥ 500 nM; in test [6], ≥ 500 nM; in test [7], ≥ 500 nM.
Take `NC(=O)C(c1cccc(-c2ccc(F)cc2)n1)c1c(Cl)cccc1Cl` (stereo not drawn) [Compound 309]: the IC50 in test [3] is 100 to 500 nM; in test [4], 100 to 500 nM; at activated p38 [1] it was 100 to 1000 nM; in test [5], ≥ 500 nM; in test [6], ≥ 500 nM; in test [7] it was ≥ 500 nM.
As to `Cc1cccc(-c2cccc(C(C(N)=O)c3c(Cl)cccc3Cl)n2)c1` (stereo not drawn) [Compound 312], the IC50 in test [3] is 100 to 500 nM; in test [4], ≥ 500 nM; against activated p38 [1], ≤ 100 nM; in test [5] it was ≥ 500 nM; in test [6] it was ≥ 500 nM; in test [7] it was ≥ 500 nM.
Consider `NC(=O)C(c1cccc(-c2ccc(Cl)cc2Cl)n1)c1c(Cl)cccc1Cl` (stereo not drawn) [Compound 325], for which the IC50 is ≤ 100 nM in test [3]; 100 to 500 nM in test [4]; ≤ 100 nM against activated p38 [1]; ≥ 500 nM in test [5]; ≥ 500 nM in test [6]; ≥ 500 nM in test [7].
Turning to `NC(=O)C(c1cccc(-c2ccc(F)cc2)n1)c1c(F)cccc1Cl` (stereo not drawn) [Compound 329], the IC50 in test [3] is 100 to 500 nM; in test [4] it was ≥ 500 nM; against activated p38 [1] it was 100 to 1000 nM; in test [5] it was ≥ 500 nM; in test [6], ≥ 500 nM; in test [7], ≥ 500 nM.
Take `Cc1cccc(-c2cccc(C(C(N)=O)c3c(F)cccc3Cl)n2)c1` (stereo not drawn) [Compound 332]: the IC50 in test [3] was 100 to 500 nM; in test [4], ≥ 500 nM; at activated p38 [1] it was 100 to 1000 nM; in test [5], ≥ 500 nM; in test [6] it was ≥ 500 nM; in test [7], ≥ 500 nM.
As to `Cc1ccccc1-c1cccc(C(C(N)=O)c2c(F)cccc2Cl)n1` (stereo not drawn) [Compound 335], the IC50 is ≥ 500 nM in test [3]; ≥ 500 nM in test [4]; 100 to 1000 nM against activated p38 [1]; ≥ 500 nM in test [5]; ≥ 500 nM in test [6]; ≥ 500 nM in test [7].
Take `NC(=O)C(c1cccc(-c2ccc(Cl)cc2Cl)n1)c1c(F)cccc1Cl` (stereo not drawn) [Compound 346]: the IC50 was ≥ 500 nM in test [3]; ≥ 500 nM in test [4]; 100 to 1000 nM on activated p38 [1]; ≥ 500 nM in test [5]; ≥ 500 nM in test [6]; ≥ 500 nM in test [7].
Turning to `NC(=O)C(c1cccc(-c2ccccc2)n1)c1cc(Cl)ccc1Cl` (stereo not drawn) [Compound 349], the IC50 in test [3] was 100 to 500 nM; in test [4], ≥ 500 nM; at activated p38 [1] it was ≥ 1000 nM; in test [5] it was ≥ 500 nM; in test [6] it was ≥ 500 nM; in test [7], ≥ 500 nM.
`NC(=O)C(c1cccc(-c2cccc3ccccc23)n1)c1c(Cl)cccc1Cl` (stereo not drawn) [Compound 362]: the IC50 is 100 to 500 nM in test [3]; 100 to 500 nM in test [4]; ≤ 100 nM against activated p38 [1]; ≥ 500 nM in test [5]; ≥ 500 nM in test [6]; ≥ 500 nM in test [7].
Take `Cc1cc(F)ccc1-c1cccc(C(C(N)=O)c2c(Cl)cccc2Cl)n1` (stereo not drawn) [Compound 363]: the IC50 in test [3] was ≤ 100 nM; in test [4] it was 100 to 500 nM; against activated p38 [1], ≤ 100 nM; in test [5], ≥ 500 nM; in test [6] it was ≥ 500 nM; in test [7] it was ≥ 500 nM.
Turning to `Cc1cc(F)ccc1-c1cccc(C(C(N)=O)c2c(Cl)cc(N)cc2Cl)n1` (stereo not drawn) [Compound 364], the IC50 in test [3] was ≤ 100 nM; in test [4] it was 100 to 500 nM; at activated p38 [1] it was ≤ 100 nM; in test [5], ≥ 500 nM; in test [6], ≥ 500 nM; in test [7], ≥ 500 nM.
With `NC(=O)N(c1cccc(-c2ccccc2)n1)c1c(Cl)cccc1Cl` [Compound 401], the IC50 in test [3] is 100 to 500 nM; in test [4], 100 to 500 nM; on activated p38 [1], ≤ 100 nM; in test [5], ≥ 500 nM; in test [6], ≥ 500 nM; in test [7], ≥ 500 nM.
For the compound `Cc1ccccc1-c1cccc(N(C(N)=O)c2c(Cl)cccc2Cl)n1` [Compound 402], the IC50 in test [3] was ≤ 100 nM; in test [4] it was ≤ 100 nM; against activated p38 [1], ≤ 100 nM; in test [5], ≥ 500 nM; in test [6], ≥ 500 nM; in test [7] it was ≥ 500 nM.
For the compound `Cc1ccccc1-c1cccc(N(C(N)=O)c2c(F)cccc2F)n1` [Compound 403], the IC50 was ≤ 100 nM in test [3]; ≤ 100 nM in test [4]; ≤ 100 nM against activated p38 [1]; ≥ 500 nM in test [5]; ≥ 500 nM in test [6]; 250 to 500 nM in test [7].
With `NC(=O)N(c1cccc(-c2ccc(F)cc2)n1)c1c(F)cccc1F` [Compound 404], the IC50 in test [3] is ≤ 100 nM; in test [4] it was ≤ 100 nM; against activated p38 [1], ≤ 100 nM; in test [5] it was ≥ 500 nM; in test [6] it was ≥ 500 nM; in test [7], ≥ 500 nM.
For `Cc1cc(F)ccc1-c1cccc(N(C(N)=O)c2c(Cl)cccc2Cl)n1` [Compound 409], the IC50 in test [3] is ≤ 100 nM; in test [4] it was ≤ 100 nM; against activated p38 [1] it was ≤ 100 nM; in test [5] it was ≥ 500 nM; in test [6], ≥ 500 nM; in test [7], 250 to 500 nM.
On to `Cc1cc(F)ccc1-c1cccc(N(C(N)=O)c2c(F)cccc2F)n1` [Compound 410], for which the IC50 in test [3] is ≤ 100 nM; in test [4], ≤ 100 nM; against activated p38 [1], ≤ 100 nM; in test [5], 250 to 500 nM; in test [6], 250 to 500 nM; in test [7], 250 to 500 nM.
As to `Cc1cc(F)ccc1-c1cccc(N(C(N)=O)c2cc3c(cc2Cl)OCO3)n1` [Compound 411], the IC50 in test [3] was ≤ 100 nM; in test [4], ≤ 100 nM; at activated p38 [1], ≤ 100 nM; in test [5], ≥ 500 nM; in test [6] it was ≥ 500 nM; in test [7], ≥ 500 nM.
